Earlier results on three compounds are cited in patent publication US6436649B1, “Method for detecting and/or quantifying a hapten in a homogeneous phase and device for implementation thereof” (priority 1996, dated 2002).

Series [1] deals with P99/Q908R/Citro.F. β-lactamases. The note with it: enzymes P99/Q908R/Citro.F.; cited from earlier work.
In series [2] the target is E. Coli β-lactamase (Escherichia coli, UniProt P00811). The note with it: enzyme E. Coli; cited from earlier work.
The target of series [3] is P99/Q908R β-lactamases (Enterobacter cloacae, UniProt P05364). The note with it: enzyme P99/Q908R; cited from earlier work.
Series [4] relates to T1, type C β-lactamases.
T1 construct: rows headed: Km; kcat
The note with it: selected inhibitors, over the β-lactamases; cited from earlier work.

Series [5] deals with P99/Q908E/E. Coli β-lactamases. The note with it: enzymes P99/Q908E/E. Coli; cited from earlier work.
The target of series [6] is T2, type C β-lactamases (Enterobacter cloacae, UniProt P05364).
T2 construct: Ki
The note with it: Ki of the parent inhibitor; cited from earlier work.

Sequence of E. Coli β-lactamase (P00811 20-377): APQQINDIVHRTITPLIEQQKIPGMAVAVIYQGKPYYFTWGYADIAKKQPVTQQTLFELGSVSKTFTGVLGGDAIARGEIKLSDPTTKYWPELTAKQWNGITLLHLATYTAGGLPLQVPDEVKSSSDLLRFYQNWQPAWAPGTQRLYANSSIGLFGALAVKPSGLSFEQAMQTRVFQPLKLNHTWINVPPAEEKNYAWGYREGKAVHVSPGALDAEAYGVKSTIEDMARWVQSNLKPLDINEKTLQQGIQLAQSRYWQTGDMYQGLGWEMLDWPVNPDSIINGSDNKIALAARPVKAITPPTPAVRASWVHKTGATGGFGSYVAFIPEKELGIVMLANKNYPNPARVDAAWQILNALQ

What is called Km is the substrate concentration at which the rate is half of its maximum. As to `CC1(C)S[C@@H]2[C@H](NC(=O)Cc3ccccc3)C(=O)N2[C@H]1C(=O)O` [Benzylpenicillin], the Michaelis constant (Km) in series [1] is 0.5 µM; in series [2], 4.4 µM. For the same compound, the kcat in series [1] is recorded as 20 S^−1; in series [2], 45 S^−1.
As to `CO/N=C(\C(=O)N[C@@H]1C(=O)N2C(C(=O)O)=C(COC(N)=O)CS[C@H]12)c1ccco1` [Cefuroxime], the Km was 0.02 µM in series [3], 0.15 µM in series [2] and 0.02 µM in series [4]. Moreover, the kcat in series [3] was 0.04 S^−1; in series [2], 0.15 S^−1.
By Ki is commonly meant the dissociation constant of the complex between target and ligand, obtained from inhibition or displacement. As for `Cc1onc(-c2ccccc2)c1C(=O)N[C@@H]1C(=O)N2[C@@H]1SC(C)(C)[C@@H]2C(=O)O` [Oxacillin], in series [5], the Km is 0.0005 µM and the kcat is on record as 0.005 S^−1. Besides, the inhibition constant (Ki) in series [6] was 0.5 nM. In series [4], the kcat was 0.005 s⁻¹.
